Experimental data as given in US9212151B2, “Heterocyclic compounds useful for kinase inhibition” (Amitech Therapeutic Solutions, Inc., priority 2010, dated 2015).

Test: MTT cell viability assay, compounds at 5, 1 and 0.2 μM, 48 hours
Format: cell-based
Details: human, A549 tumor cells, 0.2 μM
Experimental: MTT assay is used to determine cell proliferation, percent of viable cells, and cytotoxicity. MTT (3-[4,5-dimethylthiazol-2-yl]2,5-diphenyltetrazolium bromide) is a yellow dye, which can be absorbed by the living cells and be reduced to purplish blue formazan crystals by succinate tetrazolium reductase in mitochondria. Formazan formation can therefore be used to assess and determine the survival rate of cells.
Tumor cells (A549) were plated at 2500 cells/well of a 96-well plate in complete growth medium (DMEM+10% FBS, antibiotic/antimycotic, fungizone, L-glutamine, sodium pyruvate, and non-essential amino acids). The cells were allowed to grow overnight. After cell proliferation, the cells were washed and re-suspended in fresh culture medium and placed in 96 well plates.
To each of the 96 well plates containing A549 and a control, 5, 1, and 0.2 μM of the exemplary compounds 1-200 were add. The 96 well plates were incubated for 48 hours. Cell viability was measured by adding MTT (Sigma) at 5 mg/ml for 4 h to the cells and then removing the medium and resuspending each well in 50 μl DMSO to solubilize the crystals. The 96-well plates were read on a plate-scanning spectrophotometer (BioTek) at an absorbance of […]. The survival rate of cells was calculated based on the measurement of absorption at the 570 nm wavelength by enzyme immunoassay analyzer.
For `COc1cc(Oc2cccc(-c3nnc(Nc4cccc(C(F)(F)F)c4)[nH]3)c2)ncn1` [Compound 93], the viability at 48 h, 0.2 µM was > 70%. With `CCc1cc(Oc2cccc(-c3nnc(Nc4cccc(C(F)(F)F)c4)[nH]3)c2)nc(N)n1` [Compound 94] the viability at 48 h, 0.2 µM was > 70%. In the case of `COCCOc1nc(N)cc(Oc2cccc(-c3nnc(Nc4cccc(C(F)(F)F)c4)[nH]3)c2)n1` [Compound 96], the viability at 48 h, 0.2 µM is reported as > 70%. In the case of `CCOc1nc(N)cc(Oc2cccc(-c3nnc(Nc4cccc(C(F)(F)F)c4)[nH]3)c2)n1` [Compound 97], the viability at 48 h, 0.2 µM is reported as > 70%. In the case of `CC(C)(C)Sc1nc(N)cc(Oc2cccc(-c3nnc(Nc4cccc(C(F)(F)F)c4)[nH]3)c2)n1` [Compound 98], the viability at 48 h, 0.2 µM is reported as > 70%. With `CCc1nc(N)cc(Oc2cccc(-c3nnc(Nc4cccc(C(F)(F)F)c4)[nH]3)c2)n1` [Compound 99] the viability at 48 h, 0.2 µM was > 70%. For `Cc1nc(N)cc(Oc2cccc(-c3nnc(Nc4cccc(C(F)(F)F)c4)[nH]3)c2)n1` [Compound 100], the viability at 48 h, 0.2 µM was > 70%. For `FC(F)(F)c1cccc(Nc2nnc(-c3cccc(Oc4cncnc4)c3)[nH]2)c1` [Compound 101], the viability at 48 h, 0.2 µM was > 70%. For `CSc1nc(N)cc(Oc2ccc(-c3nnc(Nc4cccc(C(F)(F)F)c4)[nH]3)cc2C)n1` [Compound 102], the viability at 48 h, 0.2 µM was > 70%. In the case of `FC(F)(F)c1cccc(Nc2nnc(-c3ccc(Oc4ccncc4)c(Cl)c3)[nH]2)c1` [Compound 103], the viability at 48 h, 0.2 µM is reported as > 70%. With `CSc1nc(N)cc(Oc2ccc(-c3nnc(Nc4cccc(C(F)(F)F)c4)[nH]3)cc2Cl)n1` [Compound 104] the viability at 48 h, 0.2 µM was > 70%. With `CSc1nc(N)cc(Oc2ccc(-c3nnc(Nc4ccc(F)c(C(F)(F)F)c4)[nH]3)cc2)n1` [Compound 105] the viability at 48 h, 0.2 µM was > 70%. For `CSc1nc(N)cc(Oc2cccc(-c3nnc(Nc4ccc(F)c(C(F)(F)F)c4)[nH]3)c2)n1` [Compound 106], the viability at 48 h, 0.2 µM was > 70%. With `CSc1nc(N)cc(Oc2ccc(-c3nnc(Nc4cccc(C(F)(F)F)c4)[nH]3)c(F)c2)n1` [Compound 107] the viability at 48 h, 0.2 µM was > 70%. In the case of `COc1cc(-c2nnc(Nc3cccc(C(F)(F)F)c3)[nH]2)ccc1Oc1ccncc1` [Compound 108], the viability at 48 h, 0.2 µM is reported as > 70%. For `COc1cc(-c2nnc(Nc3cccc(C(F)(F)F)c3)[nH]2)ccc1Oc1cc(N)nc(SC)n1` [Compound 109], the viability at 48 h, 0.2 µM was > 70%. In the case of `CSc1nc(N)cc(Oc2c(C)cc(-c3nnc(Nc4cccc(C(F)(F)F)c4)[nH]3)cc2C)n1` [Compound 110], the viability at 48 h, 0.2 µM is reported as > 70%. For `FC(F)(F)c1cccc(Nc2nnc(-c3ccc(Oc4ccncc4)cc3Cl)[nH]2)c1` [Compound 111], the viability at 48 h, 0.2 µM was > 70%. With `CSc1nc(N)cc(Oc2ccc(-c3nnc(Nc4cccc(C(F)(F)F)c4)[nH]3)c(Cl)c2)n1` [Compound 112] the viability at 48 h, 0.2 µM was > 70%. In the case of `COCCOCCSc1nc(N)cc(Oc2ccc(-c3nnc(Nc4cccc(C(F)(F)F)c4)[nH]3)cc2)n1` [Compound 113], the viability at 48 h, 0.2 µM is reported as > 70%. For `CC(=O)NCCSc1nc(N)cc(Oc2ccc(-c3nnc(Nc4cccc(C(F)(F)F)c4)[nH]3)cc2)n1` [Compound 114], the viability at 48 h, 0.2 µM was > 70%. In the case of `Nc1cc(Oc2ccc(-c3nnc(Nc4cccc(C(F)(F)F)c4)[nH]3)cc2)nc(SCCO)n1` [Compound 115], the viability at 48 h, 0.2 µM is reported as > 70%.

Same assay, conditions: human, A549 tumor cells, 1 μM
For `COc1cc(Oc2cccc(-c3nnc(Nc4cccc(C(F)(F)F)c4)[nH]3)c2)ncn1` [Compound 93], the viability at 48 h, 1 µM was > 70%. With `CCc1cc(Oc2cccc(-c3nnc(Nc4cccc(C(F)(F)F)c4)[nH]3)c2)nc(N)n1` [Compound 94] the viability at 48 h, 1 µM was > 70%. For `COCCOc1nc(N)cc(Oc2cccc(-c3nnc(Nc4cccc(C(F)(F)F)c4)[nH]3)c2)n1` [Compound 96], the viability at 48 h, 1 µM was > 70%. In the case of `CCOc1nc(N)cc(Oc2cccc(-c3nnc(Nc4cccc(C(F)(F)F)c4)[nH]3)c2)n1` [Compound 97], the viability at 48 h, 1 µM is reported as > 70%. With `CC(C)(C)Sc1nc(N)cc(Oc2cccc(-c3nnc(Nc4cccc(C(F)(F)F)c4)[nH]3)c2)n1` [Compound 98] the viability at 48 h, 1 µM was > 70%. In the case of `CCc1nc(N)cc(Oc2cccc(-c3nnc(Nc4cccc(C(F)(F)F)c4)[nH]3)c2)n1` [Compound 99], the viability at 48 h, 1 µM is reported as > 70%. With `Cc1nc(N)cc(Oc2cccc(-c3nnc(Nc4cccc(C(F)(F)F)c4)[nH]3)c2)n1` [Compound 100] the viability at 48 h, 1 µM was > 70%. For `FC(F)(F)c1cccc(Nc2nnc(-c3cccc(Oc4cncnc4)c3)[nH]2)c1` [Compound 101], the viability at 48 h, 1 µM was > 70%. In the case of `CSc1nc(N)cc(Oc2ccc(-c3nnc(Nc4cccc(C(F)(F)F)c4)[nH]3)cc2C)n1` [Compound 102], the viability at 48 h, 1 µM is reported as > 70%. For `FC(F)(F)c1cccc(Nc2nnc(-c3ccc(Oc4ccncc4)c(Cl)c3)[nH]2)c1` [Compound 103], the viability at 48 h, 1 µM was > 70%. With `CSc1nc(N)cc(Oc2ccc(-c3nnc(Nc4cccc(C(F)(F)F)c4)[nH]3)cc2Cl)n1` [Compound 104] the viability at 48 h, 1 µM was > 70%. For `CSc1nc(N)cc(Oc2ccc(-c3nnc(Nc4ccc(F)c(C(F)(F)F)c4)[nH]3)cc2)n1` [Compound 105], the viability at 48 h, 1 µM was > 70%. For `CSc1nc(N)cc(Oc2cccc(-c3nnc(Nc4ccc(F)c(C(F)(F)F)c4)[nH]3)c2)n1` [Compound 106], the viability at 48 h, 1 µM was > 70%. For `CSc1nc(N)cc(Oc2ccc(-c3nnc(Nc4cccc(C(F)(F)F)c4)[nH]3)c(F)c2)n1` [Compound 107], the viability at 48 h, 1 µM was > 70%. In the case of `COc1cc(-c2nnc(Nc3cccc(C(F)(F)F)c3)[nH]2)ccc1Oc1ccncc1` [Compound 108], the viability at 48 h, 1 µM is reported as > 70%. In the case of `COc1cc(-c2nnc(Nc3cccc(C(F)(F)F)c3)[nH]2)ccc1Oc1cc(N)nc(SC)n1` [Compound 109], the viability at 48 h, 1 µM is reported as > 70%. For `CSc1nc(N)cc(Oc2c(C)cc(-c3nnc(Nc4cccc(C(F)(F)F)c4)[nH]3)cc2C)n1` [Compound 110], the viability at 48 h, 1 µM was > 70%. In the case of `FC(F)(F)c1cccc(Nc2nnc(-c3ccc(Oc4ccncc4)cc3Cl)[nH]2)c1` [Compound 111], the viability at 48 h, 1 µM is reported as > 70%. With `CSc1nc(N)cc(Oc2ccc(-c3nnc(Nc4cccc(C(F)(F)F)c4)[nH]3)c(Cl)c2)n1` [Compound 112] the viability at 48 h, 1 µM was > 70%. With `COCCOCCSc1nc(N)cc(Oc2ccc(-c3nnc(Nc4cccc(C(F)(F)F)c4)[nH]3)cc2)n1` [Compound 113] the viability at 48 h, 1 µM was > 70%. For `CC(=O)NCCSc1nc(N)cc(Oc2ccc(-c3nnc(Nc4cccc(C(F)(F)F)c4)[nH]3)cc2)n1` [Compound 114], the viability at 48 h, 1 µM was > 70%. With `Nc1cc(Oc2ccc(-c3nnc(Nc4cccc(C(F)(F)F)c4)[nH]3)cc2)nc(SCCO)n1` [Compound 115] the viability at 48 h, 1 µM was > 70%.

Same assay, conditions: human, A549 tumor cells, 5 μM
`COc1cc(Oc2cccc(-c3nnc(Nc4cccc(C(F)(F)F)c4)[nH]3)c2)ncn1` [Compound 93] showed a viability at 48 h, 5 µM of 50 to 70%. Compound `CCc1cc(Oc2cccc(-c3nnc(Nc4cccc(C(F)(F)F)c4)[nH]3)c2)nc(N)n1` [Compound 94] has a viability at 48 h, 5 µM of 50 to 70%. For `COCCOc1nc(N)cc(Oc2cccc(-c3nnc(Nc4cccc(C(F)(F)F)c4)[nH]3)c2)n1` [Compound 96], the viability at 48 h, 5 µM was > 70%. For `CCOc1nc(N)cc(Oc2cccc(-c3nnc(Nc4cccc(C(F)(F)F)c4)[nH]3)c2)n1` [Compound 97], the viability at 48 h, 5 µM was > 70%. For `CC(C)(C)Sc1nc(N)cc(Oc2cccc(-c3nnc(Nc4cccc(C(F)(F)F)c4)[nH]3)c2)n1` [Compound 98], the viability at 48 h, 5 µM was > 70%. `CCc1nc(N)cc(Oc2cccc(-c3nnc(Nc4cccc(C(F)(F)F)c4)[nH]3)c2)n1` [Compound 99] gave a viability at 48 h, 5 µM of 50 to 70%. For `Cc1nc(N)cc(Oc2cccc(-c3nnc(Nc4cccc(C(F)(F)F)c4)[nH]3)c2)n1` [Compound 100], the viability at 48 h, 5 µM was > 70%. In the case of `FC(F)(F)c1cccc(Nc2nnc(-c3cccc(Oc4cncnc4)c3)[nH]2)c1` [Compound 101], the viability at 48 h, 5 µM is reported as > 70%. In the case of `CSc1nc(N)cc(Oc2ccc(-c3nnc(Nc4cccc(C(F)(F)F)c4)[nH]3)cc2C)n1` [Compound 102], the viability at 48 h, 5 µM is reported as > 70%. `FC(F)(F)c1cccc(Nc2nnc(-c3ccc(Oc4ccncc4)c(Cl)c3)[nH]2)c1` [Compound 103] gave a viability at 48 h, 5 µM of 50 to 70%. In the case of `CSc1nc(N)cc(Oc2ccc(-c3nnc(Nc4cccc(C(F)(F)F)c4)[nH]3)cc2Cl)n1` [Compound 104], the viability at 48 h, 5 µM is reported as < 50%. For `CSc1nc(N)cc(Oc2ccc(-c3nnc(Nc4ccc(F)c(C(F)(F)F)c4)[nH]3)cc2)n1` [Compound 105], the viability at 48 h, 5 µM was < 50%. For `CSc1nc(N)cc(Oc2cccc(-c3nnc(Nc4ccc(F)c(C(F)(F)F)c4)[nH]3)c2)n1` [Compound 106], the viability at 48 h, 5 µM was > 70%. Compound `CSc1nc(N)cc(Oc2ccc(-c3nnc(Nc4cccc(C(F)(F)F)c4)[nH]3)c(F)c2)n1` [Compound 107] has a viability at 48 h, 5 µM of 50 to 70%. With `COc1cc(-c2nnc(Nc3cccc(C(F)(F)F)c3)[nH]2)ccc1Oc1ccncc1` [Compound 108] the viability at 48 h, 5 µM was < 50%. For `COc1cc(-c2nnc(Nc3cccc(C(F)(F)F)c3)[nH]2)ccc1Oc1cc(N)nc(SC)n1` [Compound 109], the viability at 48 h, 5 µM was < 50%. For `CSc1nc(N)cc(Oc2c(C)cc(-c3nnc(Nc4cccc(C(F)(F)F)c4)[nH]3)cc2C)n1` [Compound 110], the viability at 48 h, 5 µM was > 70%. In the case of `FC(F)(F)c1cccc(Nc2nnc(-c3ccc(Oc4ccncc4)cc3Cl)[nH]2)c1` [Compound 111], the viability at 48 h, 5 µM is reported as > 70%. For `CSc1nc(N)cc(Oc2ccc(-c3nnc(Nc4cccc(C(F)(F)F)c4)[nH]3)c(Cl)c2)n1` [Compound 112], the viability at 48 h, 5 µM was > 70%. For `CC(=O)NCCSc1nc(N)cc(Oc2ccc(-c3nnc(Nc4cccc(C(F)(F)F)c4)[nH]3)cc2)n1` [Compound 114], the viability at 48 h, 5 µM was > 70%. In the case of `Nc1cc(Oc2ccc(-c3nnc(Nc4cccc(C(F)(F)F)c4)[nH]3)cc2)nc(SCCO)n1` [Compound 115], the viability at 48 h, 5 µM is reported as > 70%.
